According to ChEMBL document CHEMBL3991601, “The target landscape of clinical kinase drugs” (Science, 2017):
The source made the active and inactive calls. Rule as the data show it, for most assays here: actives have a measured Kd and inactives only a lower limit.

Tests used:
[1] = biological target: Serine/threonine-protein kinase MRCK beta (Homo sapiens, UniProt Q9Y5S2)
[2] = biological target: Casein kinase I isoform gamma-1 (Homo sapiens, UniProt Q9HCP0)
[3] = biological target: Glycogen synthase kinase-3 alpha (Homo sapiens, UniProt P49840)
Glycogen synthase kinase-3 alpha, sequence (P49840 whole entry, the tested form may be a part): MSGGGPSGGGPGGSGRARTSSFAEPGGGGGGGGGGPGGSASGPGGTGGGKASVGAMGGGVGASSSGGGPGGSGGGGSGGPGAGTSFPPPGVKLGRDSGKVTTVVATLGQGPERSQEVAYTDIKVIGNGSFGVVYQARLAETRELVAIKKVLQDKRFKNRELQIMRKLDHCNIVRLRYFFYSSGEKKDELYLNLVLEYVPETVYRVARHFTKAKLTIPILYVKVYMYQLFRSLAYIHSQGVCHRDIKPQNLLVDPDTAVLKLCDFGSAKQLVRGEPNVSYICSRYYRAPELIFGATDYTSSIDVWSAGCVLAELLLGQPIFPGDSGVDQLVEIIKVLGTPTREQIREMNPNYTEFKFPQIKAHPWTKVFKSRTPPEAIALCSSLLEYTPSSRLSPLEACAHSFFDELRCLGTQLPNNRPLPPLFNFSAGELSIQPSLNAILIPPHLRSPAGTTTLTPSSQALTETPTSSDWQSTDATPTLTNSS

LIM domain kinase 1 = LIM domain kinase 1 (Homo sapiens, UniProt P53667)
LIM domain kinase 1, sequence (P53667 whole entry, the tested form may be a part): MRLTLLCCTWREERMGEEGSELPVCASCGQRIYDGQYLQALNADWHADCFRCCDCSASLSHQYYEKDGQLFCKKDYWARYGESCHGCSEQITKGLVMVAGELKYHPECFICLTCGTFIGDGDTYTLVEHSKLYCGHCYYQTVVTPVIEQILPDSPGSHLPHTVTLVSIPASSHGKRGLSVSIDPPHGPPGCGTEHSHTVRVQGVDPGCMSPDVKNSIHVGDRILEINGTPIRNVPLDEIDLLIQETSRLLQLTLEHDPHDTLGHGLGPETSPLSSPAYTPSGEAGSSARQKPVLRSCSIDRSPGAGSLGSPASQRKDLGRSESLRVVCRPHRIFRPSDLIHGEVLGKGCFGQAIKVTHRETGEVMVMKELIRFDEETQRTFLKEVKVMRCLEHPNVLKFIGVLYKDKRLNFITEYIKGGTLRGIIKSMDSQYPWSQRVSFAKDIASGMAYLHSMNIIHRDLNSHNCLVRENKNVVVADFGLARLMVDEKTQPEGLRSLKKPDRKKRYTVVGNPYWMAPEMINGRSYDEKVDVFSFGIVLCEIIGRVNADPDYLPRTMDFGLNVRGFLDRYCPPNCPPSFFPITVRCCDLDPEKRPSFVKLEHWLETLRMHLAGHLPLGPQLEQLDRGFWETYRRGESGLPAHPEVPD

[4] = biological target: Macrophage-stimulating protein receptor (Homo sapiens, UniProt Q04912)
[5] = biological target: Platelet-derived growth factor receptor beta (Homo sapiens, UniProt P09619)
Platelet-derived growth factor receptor beta, sequence (P09619 whole entry): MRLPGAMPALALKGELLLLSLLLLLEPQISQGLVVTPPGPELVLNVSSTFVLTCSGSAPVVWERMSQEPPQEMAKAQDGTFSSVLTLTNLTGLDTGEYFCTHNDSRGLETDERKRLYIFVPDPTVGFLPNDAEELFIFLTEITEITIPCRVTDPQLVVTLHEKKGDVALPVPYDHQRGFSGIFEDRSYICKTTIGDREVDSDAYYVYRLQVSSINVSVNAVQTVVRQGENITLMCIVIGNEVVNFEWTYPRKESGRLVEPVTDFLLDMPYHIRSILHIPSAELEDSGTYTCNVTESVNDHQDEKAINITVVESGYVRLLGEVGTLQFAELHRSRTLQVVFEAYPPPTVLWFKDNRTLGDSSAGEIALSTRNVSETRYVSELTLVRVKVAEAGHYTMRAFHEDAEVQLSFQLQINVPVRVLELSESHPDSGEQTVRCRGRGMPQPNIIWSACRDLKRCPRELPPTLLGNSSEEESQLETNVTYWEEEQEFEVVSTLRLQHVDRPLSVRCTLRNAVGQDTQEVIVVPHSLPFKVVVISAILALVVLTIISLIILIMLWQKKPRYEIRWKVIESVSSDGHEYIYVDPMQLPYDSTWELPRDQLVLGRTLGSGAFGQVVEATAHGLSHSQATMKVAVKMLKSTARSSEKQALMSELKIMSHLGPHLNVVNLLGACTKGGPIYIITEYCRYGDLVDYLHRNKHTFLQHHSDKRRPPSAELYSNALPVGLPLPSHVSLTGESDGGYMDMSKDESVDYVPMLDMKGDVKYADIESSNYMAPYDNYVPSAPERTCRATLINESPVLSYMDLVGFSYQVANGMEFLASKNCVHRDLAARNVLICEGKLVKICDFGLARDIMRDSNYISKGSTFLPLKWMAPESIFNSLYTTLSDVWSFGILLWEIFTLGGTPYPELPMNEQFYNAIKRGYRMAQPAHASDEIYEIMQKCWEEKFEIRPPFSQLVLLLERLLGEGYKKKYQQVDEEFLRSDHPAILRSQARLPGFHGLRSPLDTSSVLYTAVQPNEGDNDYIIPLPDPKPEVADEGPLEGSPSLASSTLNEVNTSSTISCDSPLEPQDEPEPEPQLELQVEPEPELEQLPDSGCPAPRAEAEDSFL

Pyridoxal kinase = biological target: T1, Pyridoxal kinase (Homo sapiens, UniProt O00764)
T1 sequence (O00764 whole entry): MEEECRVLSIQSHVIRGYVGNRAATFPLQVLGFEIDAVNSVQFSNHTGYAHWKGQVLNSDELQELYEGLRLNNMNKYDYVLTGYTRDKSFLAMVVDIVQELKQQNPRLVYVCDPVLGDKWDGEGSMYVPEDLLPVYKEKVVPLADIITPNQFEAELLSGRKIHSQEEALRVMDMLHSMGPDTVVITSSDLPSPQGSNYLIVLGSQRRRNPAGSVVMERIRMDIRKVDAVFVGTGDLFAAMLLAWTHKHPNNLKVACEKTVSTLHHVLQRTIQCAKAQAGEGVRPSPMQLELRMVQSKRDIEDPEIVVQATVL

[6] = biological target: T2, Serine/threonine-protein kinase 3 (Homo sapiens, UniProt Q13188)
T2 sequence (Q13188 whole entry): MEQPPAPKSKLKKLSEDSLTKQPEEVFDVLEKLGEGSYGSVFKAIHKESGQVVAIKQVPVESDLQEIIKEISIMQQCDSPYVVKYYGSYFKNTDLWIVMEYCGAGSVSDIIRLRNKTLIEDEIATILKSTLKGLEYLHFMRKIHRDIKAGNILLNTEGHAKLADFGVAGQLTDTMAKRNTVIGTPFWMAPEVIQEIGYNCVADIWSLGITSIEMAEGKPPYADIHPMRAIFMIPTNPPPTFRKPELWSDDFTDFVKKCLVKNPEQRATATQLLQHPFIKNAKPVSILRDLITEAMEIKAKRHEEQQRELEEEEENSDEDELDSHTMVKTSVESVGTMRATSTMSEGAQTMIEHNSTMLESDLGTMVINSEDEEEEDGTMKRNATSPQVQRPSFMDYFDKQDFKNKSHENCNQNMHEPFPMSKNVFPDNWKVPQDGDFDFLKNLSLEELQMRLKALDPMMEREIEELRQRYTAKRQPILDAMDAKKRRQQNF

TGF-beta receptor type-1 = biological target: T3, TGF-beta receptor type-1 (Homo sapiens, UniProt P36897)
T3 sequence (P36897 whole entry): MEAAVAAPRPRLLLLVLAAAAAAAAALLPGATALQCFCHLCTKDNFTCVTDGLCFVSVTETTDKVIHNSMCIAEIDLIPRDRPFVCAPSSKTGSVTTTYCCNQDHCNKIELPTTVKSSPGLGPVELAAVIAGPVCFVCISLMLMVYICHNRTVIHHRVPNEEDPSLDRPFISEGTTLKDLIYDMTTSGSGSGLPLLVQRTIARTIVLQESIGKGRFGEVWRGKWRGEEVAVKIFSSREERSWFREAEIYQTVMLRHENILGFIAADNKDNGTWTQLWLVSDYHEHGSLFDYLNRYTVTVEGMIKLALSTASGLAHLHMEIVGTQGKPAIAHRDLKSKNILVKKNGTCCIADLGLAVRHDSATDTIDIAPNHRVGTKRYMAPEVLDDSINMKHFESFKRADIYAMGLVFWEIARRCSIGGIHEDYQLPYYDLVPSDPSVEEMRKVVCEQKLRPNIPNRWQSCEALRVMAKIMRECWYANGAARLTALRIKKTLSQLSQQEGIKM

[7] = biological target: T4, EKC/KEOPS complex subunit TP53RK (Homo sapiens, UniProt Q96S44)
T4 sequence (Q96S44 whole entry): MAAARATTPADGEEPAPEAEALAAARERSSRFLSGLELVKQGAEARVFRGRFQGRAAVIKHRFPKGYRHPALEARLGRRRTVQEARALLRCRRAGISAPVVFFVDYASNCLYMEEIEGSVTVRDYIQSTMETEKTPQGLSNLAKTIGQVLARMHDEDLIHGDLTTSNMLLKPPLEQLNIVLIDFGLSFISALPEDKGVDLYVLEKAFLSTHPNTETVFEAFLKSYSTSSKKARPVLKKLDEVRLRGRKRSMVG

[8] = biological target: T5, General transcription and DNA repair factor IIH helicase subunit XPD (Homo sapiens, UniProt P18074); settings: read-out: Kd apparent; k-562, colo 205, sk-n-be(2) and mv-4-11
T5 sequence (P18074 whole entry): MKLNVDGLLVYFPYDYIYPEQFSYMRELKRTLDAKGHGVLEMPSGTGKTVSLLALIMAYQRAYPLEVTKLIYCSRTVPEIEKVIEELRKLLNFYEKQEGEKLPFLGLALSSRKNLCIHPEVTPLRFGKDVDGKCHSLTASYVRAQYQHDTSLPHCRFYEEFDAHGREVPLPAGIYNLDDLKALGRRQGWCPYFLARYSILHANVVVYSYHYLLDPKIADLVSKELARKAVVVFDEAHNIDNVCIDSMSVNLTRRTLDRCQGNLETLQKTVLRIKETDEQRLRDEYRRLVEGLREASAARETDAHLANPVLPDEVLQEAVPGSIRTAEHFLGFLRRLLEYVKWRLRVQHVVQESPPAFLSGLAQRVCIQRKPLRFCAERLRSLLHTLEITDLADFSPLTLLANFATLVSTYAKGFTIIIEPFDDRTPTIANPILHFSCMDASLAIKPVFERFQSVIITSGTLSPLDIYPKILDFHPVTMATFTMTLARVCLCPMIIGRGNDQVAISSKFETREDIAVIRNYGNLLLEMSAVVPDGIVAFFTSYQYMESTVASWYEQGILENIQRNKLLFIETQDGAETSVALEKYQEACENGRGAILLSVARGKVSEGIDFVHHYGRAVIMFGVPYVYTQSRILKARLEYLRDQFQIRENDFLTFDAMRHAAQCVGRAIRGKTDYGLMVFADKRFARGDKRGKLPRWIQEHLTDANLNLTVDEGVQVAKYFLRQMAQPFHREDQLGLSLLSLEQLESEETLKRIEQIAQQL

Measured: Kd
Also: in the data inactive means no Kd found up to 30 µM.

Serine/threonine-protein kinase MRCK beta, sequence (Q9Y5S2 whole entry, canonical isoform): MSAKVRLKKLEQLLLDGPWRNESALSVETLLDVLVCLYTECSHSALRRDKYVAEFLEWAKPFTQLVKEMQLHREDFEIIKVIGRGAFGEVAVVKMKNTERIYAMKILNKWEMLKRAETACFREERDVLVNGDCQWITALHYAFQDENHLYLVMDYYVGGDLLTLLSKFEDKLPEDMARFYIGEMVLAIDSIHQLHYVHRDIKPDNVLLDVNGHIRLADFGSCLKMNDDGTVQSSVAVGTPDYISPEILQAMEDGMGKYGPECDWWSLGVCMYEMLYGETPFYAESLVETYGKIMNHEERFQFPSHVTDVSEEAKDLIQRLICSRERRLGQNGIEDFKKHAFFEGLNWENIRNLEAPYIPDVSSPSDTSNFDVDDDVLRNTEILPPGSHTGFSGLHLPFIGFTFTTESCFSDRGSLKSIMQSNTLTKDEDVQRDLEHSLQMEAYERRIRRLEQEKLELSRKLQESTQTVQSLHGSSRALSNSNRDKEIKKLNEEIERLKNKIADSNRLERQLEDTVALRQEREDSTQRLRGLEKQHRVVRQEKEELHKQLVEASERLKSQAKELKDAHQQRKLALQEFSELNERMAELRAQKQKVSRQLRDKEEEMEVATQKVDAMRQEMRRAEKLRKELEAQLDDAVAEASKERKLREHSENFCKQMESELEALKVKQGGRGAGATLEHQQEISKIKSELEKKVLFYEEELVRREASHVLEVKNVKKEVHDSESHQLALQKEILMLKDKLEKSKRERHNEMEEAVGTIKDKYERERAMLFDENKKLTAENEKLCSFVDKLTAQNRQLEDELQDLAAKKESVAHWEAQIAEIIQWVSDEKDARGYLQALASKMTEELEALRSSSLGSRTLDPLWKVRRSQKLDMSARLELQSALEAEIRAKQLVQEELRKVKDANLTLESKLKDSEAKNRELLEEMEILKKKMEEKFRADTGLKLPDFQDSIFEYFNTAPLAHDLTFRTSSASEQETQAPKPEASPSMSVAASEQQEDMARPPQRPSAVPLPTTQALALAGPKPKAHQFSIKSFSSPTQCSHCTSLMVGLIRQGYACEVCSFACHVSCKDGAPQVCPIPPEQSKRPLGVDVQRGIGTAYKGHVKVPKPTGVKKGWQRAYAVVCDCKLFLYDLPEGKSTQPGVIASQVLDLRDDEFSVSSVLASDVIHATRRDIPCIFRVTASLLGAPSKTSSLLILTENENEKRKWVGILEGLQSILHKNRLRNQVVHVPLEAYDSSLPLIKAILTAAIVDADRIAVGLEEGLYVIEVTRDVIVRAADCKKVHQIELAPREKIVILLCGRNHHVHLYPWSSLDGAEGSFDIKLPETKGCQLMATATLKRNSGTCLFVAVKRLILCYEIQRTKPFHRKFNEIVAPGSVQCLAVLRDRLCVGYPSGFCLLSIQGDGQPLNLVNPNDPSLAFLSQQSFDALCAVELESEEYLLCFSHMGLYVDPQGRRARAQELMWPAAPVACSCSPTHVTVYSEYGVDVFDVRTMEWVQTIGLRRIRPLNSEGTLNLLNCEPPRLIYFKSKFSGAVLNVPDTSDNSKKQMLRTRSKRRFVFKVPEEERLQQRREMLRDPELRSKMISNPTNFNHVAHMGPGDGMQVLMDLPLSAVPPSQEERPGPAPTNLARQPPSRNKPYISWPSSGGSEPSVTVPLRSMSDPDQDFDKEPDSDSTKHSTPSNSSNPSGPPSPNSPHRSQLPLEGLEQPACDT
Casein kinase I isoform gamma-1, sequence (Q9HCP0 whole entry, canonical isoform): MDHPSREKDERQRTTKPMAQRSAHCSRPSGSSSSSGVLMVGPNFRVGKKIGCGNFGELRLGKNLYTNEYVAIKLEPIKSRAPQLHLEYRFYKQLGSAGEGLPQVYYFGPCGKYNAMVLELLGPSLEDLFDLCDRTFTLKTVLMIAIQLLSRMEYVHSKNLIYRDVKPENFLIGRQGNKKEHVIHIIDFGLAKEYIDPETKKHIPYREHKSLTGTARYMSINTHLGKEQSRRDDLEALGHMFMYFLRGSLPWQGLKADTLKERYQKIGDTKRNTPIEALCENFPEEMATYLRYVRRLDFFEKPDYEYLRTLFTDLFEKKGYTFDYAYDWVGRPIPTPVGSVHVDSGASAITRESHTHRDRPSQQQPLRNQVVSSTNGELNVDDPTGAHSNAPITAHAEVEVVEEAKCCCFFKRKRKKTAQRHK

Cc1ccc(-n2nc(C(C)(C)C)cc2NC(=O)NCc2cc(F)ccc2Oc2ccc3c(cnn3CCO)c2)cc1 [PEXMETINIB]
inactive: [1] > 30 µM | [2] > 30 µM | [3] > 30 µM | LIM domain kinase 1 > 30 µM | [4] > 30 µM | [5] > 30 µM | Pyridoxal kinase > 30 µM | [6] > 30 µM | TGF-beta receptor type-1 > 30 µM | [7] > 30 µM | [8] > 30 µM
